The results in this text go back to US9439904B2, “Pyrimidine compounds and their use as gamma secretase modulators” (Acturum Life Science AB, priority 2013, dated 2016).

Assay [1] concerns Aβ42. Put plainly: HEK assay: Aβ42 secreted to cell medium, Meso Scale Discovery electrochemiluminescence. Conditions: Homo sapiens, HEK293; HEK cell line stably expressing APPswe; 4-6 hours incubation with test compound; read-out: pIC50 Aβ42 HEK assay (converted). The class given is cell-based. The method, then: Compounds were diluted in 100% DMSO and stored at […] prior to use. Human Embryonic Kidney (HEK) cell line stably expressing APP with the Swedish mutation (APPswe) was cultured using Dulbecco's Modified Eagles medium (DMEM) supplied with […] glucose, Na-pyruvate and GlutaMAX, 10% Foetal bovine serum, 100 U/mL penicillin-streptomycin (PEST), 1× non-essential amino acids (NEAA), […] Hepes, 100 μg/mL Zeocine. Cells at about 80% confluence were washed with PBS, detached from culture flasks using 1× Trypsin/EDTA diluted in PBS, re-suspended in cell media and plated in 384-well poly-d-lysine coated cell culture plates at about 10000-15000 cells/well, in 25 μL cell media. Optionally, cryo-preserved cells (frozen and stored at −140° C. in 90% cell media and 10% DMSO) were thawed, washed and plated as above. Next the cells were incubated for 15-24 h at 37° C. and 5% CO2, after which cell medium was changed. Fresh medium containing test compound diluted ×200 from prepared compound plate was added to the cells before further incubation for 4-6 hours at 37° C. and 5% CO2. After incubation with test compound the amount of Aβ peptides, including Aβ42, Aβ40, Aβ39, Aβ38 and Aβ37, secreted to cell medium was analyzed using the electrochemiluminescence assay technology from Meso Scale Discovery Technology, in combination with specific antibodies raised against the different Aβ peptides. Potential cytotoxic effects of the compounds were assayed by measuring the ATP content (ViaLight) from cell lysate.

The test system of assay [2] is Aβ42. The assay is described as follows: PCN assay: Aβ42 secreted by primary cortical neuronal cells, ELISA. Type of assay: cell-based. The settings on record: primary cortical neuronal cells from 16-day mouse embryos; 16-20 hours incubation with test compound; read-out: pIC50 Aβ42 PCN assay (converted). As to the method:
Compounds were diluted in 100% DMSO and stored at […] prior to use. Primary cortical neuronal cells (PCN) were isolated from 16-day mouse embryos and cultured in Ham's F12 media containing 10% Foetal bovine serum, 10 mM Hepes, 2 mM L-glutamine and 100 U/mL Penicillin-Streptomycin. 150000-250000 cells/well, in 200 μL cell media were seeded onto 96-well poly-D-Lysine coated plates. After incubation at 37° C., 5% CO2 for five days, the media was exchanged for fresh medium containing test compound diluted ×100, before further incubation for 16-20 hours at 37° C. and 5% CO2. After incubation with test compound the amount of […] secreted to cell medium was analyzed using the solid phase sandwich Enzyme-Linked-Immuno-Sorbent Assay (ELISA)-kit from Invitrogen for detection of mouse βAmyloid 1-42. Potential cytotoxic effects of the compounds were assayed by measuring the ATP content (Via Light) from cell lysate.

As to `COc1cc(Nc2nc(COCC(F)(F)F)cc(N3CCC3)n2)ccc1-n1cnc(C)c1` [Example 20, 4-(Azetidin-1-yl)-N-(3-methoxy-4-(4-methyl-1H-imidazol-1-yl)phenyl)-6-((2,2,2-trifluoroethoxy)methyl)pyrimidin-2-amine], the values for the IC50 in the assay with Aβ42 [1] and in the assay with Aβ42 [2] were 39.8 nM and 100 nM, respectively.

For the molecule `COc1cc(Nc2nc(COCC(F)(F)F)cc(N3CCC3)n2)ccc1-c1cnnc(C)c1` [Example 21, 4-(Azetidin-1-yl)-N-(3-methoxy-4-(6-methylpyridazin-4-yl)phenyl)-6-((2,2,2-trifluoroethoxy)methyl)pyrimidin-2-amine], the IC50 is 126 nM in the assay on Aβ42 [1] and 50.1 nM in the assay with Aβ42 [2].

Turning to `COc1cc(Nc2nc(COCC(F)(F)F)cc(N3CCC(F)(F)CC3)n2)ccc1-c1cnnc(C)c1` [Example 22, 4-(4,4-Difluoropiperidin-1-yl)-N-(3-methoxy-4-(6-methylpyridazin-4-yl)phenyl)-6-((2,2,2-trifluoroethoxy)methyl)pyrimidin-2-amine], the IC50 with Aβ42 [1] was 79.4 nM; with Aβ42 [2] it was 63.1 nM.

On to `COc1cc(Nc2nc(COCC(F)(F)F)cc(NC(C)C)n2)ccc1-c1cnnc(C)c1` [Example 23, N^4-Isopropyl-N^2-(3-methoxy-4-(6-methylpyridazin-4-yl)phenyl)-6-((2,2,2-trifluoroethoxy)-methyl)pyrimidine-2,4-diamine], for which the IC50 with Aβ42 [1] and in the assay on Aβ42 [2] was 79.4 nM each time.

For the molecule `CNc1cc(COCC(F)(F)F)nc(Nc2ccc(-c3cnnc(C)c3)c(OC)c2)n1` [Example 24, N^2-(3-Methoxy-4-(6-methylpyridazin-4-yl)phenyl)-N^4-methyl-6-((2,2,2-trifluoroethoxy)-methyl)pyrimidine-2,4-diamine], the IC50 was 100 nM with Aβ42 [1] and 79.4 nM in the assay on Aβ42 [2].

For `COc1cc(Nc2nc(COCC(F)(F)F)cc(N(C)Cc3ccccc3)n2)ccc1-n1cnc(C)c1` [Example 25, N^4-Benzyl-N^2-(3-methoxy-4-(4-methyl-1H-imidazol-1-yl)phenyl)-N^4-methyl-6-((2,2,2-trifluoroethoxy)methyl)pyrimidine-2,4-diamine], the figures for the IC50 in the assay with Aβ42 [1] and in the assay with Aβ42 [2] were 25.1 nM and 50.1 nM, respectively.

As to `COc1cc(Nc2nc(COCC(F)(F)F)cc(N3CCC(F)(F)CC3)n2)ccc1-n1cnc(C)c1` [Example 26, 4-(4,4-Difluoropiperidin-1-yl)-N-(3-methoxy-4-(4-methyl-1H-imidazol-1-yl)phenyl)-6-((2,2,2-trifluoroethoxy)methyl)pyrimidin-2-amine], the IC50 was 50.1 nM with Aβ42 [1] and 20 nM in the assay with Aβ42 [2].

In the case of `COCc1cc(C(C)(C)O)nc(Nc2ccc(-n3cnc(C)c3)c(OC)c2)n1` [Example 27, 2-(2-(3-Methoxy-4-(4-methyl-1H-imidazol-1-yl)phenylamino)-6-(methoxymethyl)pyrimidin-4-yl)propan-2-ol], the IC50 is 158 nM in the assay with Aβ42 [1] and 126 nM in the assay with Aβ42 [2].

For `COc1cc(Nc2nc(COCC(F)(F)F)cc(C(O)C3CC3)n2)ccc1-n1cnc(C)c1` (stereo not shown) [Example 28, Cyclopropyl(2-(3-methoxy-4-(4-methyl-1H-imidazol-1-yl)phenylamino)-6-((2,2,2-trifluoroethoxy)methyl)pyrimidin-4-yl)methanol], the figures for the IC50 in the assay on Aβ42 [1] and with Aβ42 [2] were 39.8 nM and 100 nM, respectively.

`COc1cc(Nc2nc(COCC3CC3)cc(C(C)(C)O)n2)ccc1-n1cnc(C)c1` [Example 29, 2-(6-((Cyclopropylmethoxy)methyl)-2-(3-methoxy-4-(4-methyl-1H-imidazol-1-yl)phenylamino)pyrimidin-4-yl)propan-2-ol]: the IC50 in the assay with Aβ42 [1] is 39.8 nM; in the assay with Aβ42 [2], 63.1 nM.

On to `CNc1cc(COCC2CC2)nc(Nc2ccc(-n3cnc(C)c3)c(OC)c2)n1` [Example 30, 6-((Cyclopropylmethoxy)methyl)-N2-(3-methoxy-4-(4-methyl-1H-imidazol-1-yl)phenyl)-N4-methylpyrimidine-2,4-diamine], for which the results for the IC50 with Aβ42 [1] and with Aβ42 [2] were 39.8 nM and 63.1 nM, respectively.
